What all share (type): cell-based
The target in assay [1] is T1, human TLR9 (Homo sapiens, UniProt Q9NR96).
T1 construct: host or cells: HEK-Blue cells
T1 sequence (Q9NR96 26-1032): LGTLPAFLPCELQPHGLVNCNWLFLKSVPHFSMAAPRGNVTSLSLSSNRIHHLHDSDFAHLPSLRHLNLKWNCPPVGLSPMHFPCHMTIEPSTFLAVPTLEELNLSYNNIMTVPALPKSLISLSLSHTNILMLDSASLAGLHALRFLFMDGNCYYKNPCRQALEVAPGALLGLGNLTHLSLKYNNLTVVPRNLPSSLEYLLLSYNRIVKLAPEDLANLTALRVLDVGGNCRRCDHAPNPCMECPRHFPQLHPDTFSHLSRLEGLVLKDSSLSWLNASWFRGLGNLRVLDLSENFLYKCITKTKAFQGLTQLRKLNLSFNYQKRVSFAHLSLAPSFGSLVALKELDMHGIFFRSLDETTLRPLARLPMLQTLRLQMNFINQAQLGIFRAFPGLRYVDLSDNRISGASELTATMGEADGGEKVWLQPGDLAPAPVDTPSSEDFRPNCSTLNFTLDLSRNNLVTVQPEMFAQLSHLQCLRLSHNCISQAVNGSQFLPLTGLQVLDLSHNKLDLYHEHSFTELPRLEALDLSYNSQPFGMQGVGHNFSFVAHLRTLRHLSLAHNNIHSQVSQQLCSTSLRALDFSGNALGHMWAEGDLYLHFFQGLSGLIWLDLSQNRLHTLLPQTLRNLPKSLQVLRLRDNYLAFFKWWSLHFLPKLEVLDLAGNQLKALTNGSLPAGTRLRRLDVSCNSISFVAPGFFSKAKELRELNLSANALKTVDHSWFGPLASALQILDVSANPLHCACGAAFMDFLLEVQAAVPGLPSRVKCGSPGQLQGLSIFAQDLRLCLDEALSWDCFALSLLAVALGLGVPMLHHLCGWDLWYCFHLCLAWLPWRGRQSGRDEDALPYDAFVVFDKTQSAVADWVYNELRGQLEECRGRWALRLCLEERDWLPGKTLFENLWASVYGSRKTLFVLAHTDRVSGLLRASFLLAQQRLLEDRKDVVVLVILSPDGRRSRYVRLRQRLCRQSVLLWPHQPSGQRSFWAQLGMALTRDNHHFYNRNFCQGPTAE
Briefly: TLR9 inhibition reporter assay (HEK-Blue SEAP reporter). The note with it: HEK-Blue cells overexpressing human TLR9; ODN2006 5 nM; 22 hour incubation. The method in brief:
(§1)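 Agonists used: gardiquimod 7.5 μM (TLR7), R848 15.9 μM (TLR8), ODN2006 5 nM (TLR9), added after 30 min room-temperature compound pre-treatment (0.05 nM–50 μM) of receptor-overexpressing HEK-Blue cells. SEAP reporter (NF-κB/AP-1 driven) read after 22 h at 37 °C; inhibition scaled between agonist+DMSO and reference-inhibitor wells.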
(In general: A reporter such as luciferase makes a cellular process visible.)

In assay [2] the target is T2, human TLR7 (Homo sapiens, UniProt Q9NYK1).
T2 construct: host or cells: HEK-Blue cells
T2 sequence (Q9NYK1 27-1049): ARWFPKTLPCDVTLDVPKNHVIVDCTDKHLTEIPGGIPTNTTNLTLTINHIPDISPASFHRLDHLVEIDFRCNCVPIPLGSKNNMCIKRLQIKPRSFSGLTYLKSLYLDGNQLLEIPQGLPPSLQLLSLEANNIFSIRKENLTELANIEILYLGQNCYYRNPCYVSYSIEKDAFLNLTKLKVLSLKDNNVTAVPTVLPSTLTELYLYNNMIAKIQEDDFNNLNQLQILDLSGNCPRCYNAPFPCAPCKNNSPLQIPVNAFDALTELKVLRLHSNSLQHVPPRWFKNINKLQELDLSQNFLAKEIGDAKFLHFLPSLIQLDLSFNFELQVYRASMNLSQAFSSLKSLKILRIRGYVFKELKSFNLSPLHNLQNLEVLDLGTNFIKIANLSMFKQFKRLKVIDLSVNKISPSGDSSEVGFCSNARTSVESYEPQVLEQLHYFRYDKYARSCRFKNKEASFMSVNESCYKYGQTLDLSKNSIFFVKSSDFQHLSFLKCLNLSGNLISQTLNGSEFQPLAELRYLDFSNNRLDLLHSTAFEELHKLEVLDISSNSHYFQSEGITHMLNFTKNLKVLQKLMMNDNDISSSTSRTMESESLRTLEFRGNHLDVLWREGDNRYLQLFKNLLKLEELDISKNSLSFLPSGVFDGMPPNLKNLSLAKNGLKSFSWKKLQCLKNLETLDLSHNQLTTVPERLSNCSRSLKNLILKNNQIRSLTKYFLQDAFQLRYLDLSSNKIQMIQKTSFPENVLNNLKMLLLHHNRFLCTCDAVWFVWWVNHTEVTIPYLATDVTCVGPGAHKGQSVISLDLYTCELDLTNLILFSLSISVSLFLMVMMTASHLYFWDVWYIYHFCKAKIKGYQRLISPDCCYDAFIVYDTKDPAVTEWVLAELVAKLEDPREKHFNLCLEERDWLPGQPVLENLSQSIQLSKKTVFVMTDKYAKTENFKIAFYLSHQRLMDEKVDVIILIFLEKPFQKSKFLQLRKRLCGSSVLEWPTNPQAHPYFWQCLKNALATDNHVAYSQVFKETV
Briefly: TLR7 inhibition reporter assay (HEK-Blue SEAP reporter). The note with it: HEK-Blue cells overexpressing human TLR7; gardiquimod 7.5 μM; 22 hour incubation. The method, boiled down: as §1

In assay [3] the target is T3, human TLR8 (Homo sapiens, UniProt Q9NR97).
T3 construct: host or cells: HEK-Blue cells
T3 sequence (Q9NR97 27-1041): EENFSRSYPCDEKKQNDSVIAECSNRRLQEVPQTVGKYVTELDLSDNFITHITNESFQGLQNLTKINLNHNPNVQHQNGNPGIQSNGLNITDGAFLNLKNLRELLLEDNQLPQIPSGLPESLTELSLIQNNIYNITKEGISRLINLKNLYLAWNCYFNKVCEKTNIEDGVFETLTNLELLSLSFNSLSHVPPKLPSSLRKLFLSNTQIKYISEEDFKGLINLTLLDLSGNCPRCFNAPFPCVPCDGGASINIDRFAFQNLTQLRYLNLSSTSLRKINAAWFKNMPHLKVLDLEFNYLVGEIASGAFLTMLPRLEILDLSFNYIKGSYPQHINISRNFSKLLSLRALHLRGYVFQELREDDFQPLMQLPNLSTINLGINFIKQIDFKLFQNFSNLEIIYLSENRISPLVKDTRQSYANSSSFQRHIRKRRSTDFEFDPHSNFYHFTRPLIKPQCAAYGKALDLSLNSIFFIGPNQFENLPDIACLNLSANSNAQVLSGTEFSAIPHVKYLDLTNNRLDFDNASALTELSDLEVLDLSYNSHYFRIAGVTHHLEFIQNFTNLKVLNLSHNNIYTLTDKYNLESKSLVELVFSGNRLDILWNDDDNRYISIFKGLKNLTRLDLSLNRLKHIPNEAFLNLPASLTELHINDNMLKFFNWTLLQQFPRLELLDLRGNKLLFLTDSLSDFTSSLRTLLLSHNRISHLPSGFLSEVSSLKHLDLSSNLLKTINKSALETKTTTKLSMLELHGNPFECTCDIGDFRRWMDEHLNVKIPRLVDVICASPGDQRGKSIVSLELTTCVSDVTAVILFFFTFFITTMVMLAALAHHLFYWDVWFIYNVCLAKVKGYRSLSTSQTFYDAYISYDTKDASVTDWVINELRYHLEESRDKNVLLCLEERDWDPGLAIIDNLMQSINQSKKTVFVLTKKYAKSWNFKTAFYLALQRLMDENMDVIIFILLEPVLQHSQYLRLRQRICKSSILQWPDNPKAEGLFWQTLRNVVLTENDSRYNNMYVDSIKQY
Briefly: TLR8 inhibition reporter assay (HEK-Blue SEAP reporter). The conditions noted are these: HEK-Blue cells overexpressing human TLR8; R848 15.9 μM; 22 hour incubation. The method, boiled down: as §1

Bounds are passed on as bounds.

With `CNCCNC1CCN(c2ccc3[nH]c(-c4ccnc(C)c4)c(C(C)C)c3c2)C1=O` (stereo not drawn) [Example 1, 1-(3-isopropyl-2-(2-methylpyridin-4-yl)-1H-indol-5-yl)-3-((2-(methylamino)ethyl)amino)pyrrolidin-2-one], the IC50 stood at 0.488 µM in assay [1], 0.189 µM in assay [2] and 0.016 µM in assay [3].

For `CC(C)c1c(-c2ccnc3[nH]ncc23)[nH]c2ccc(N3CCN(C4CCN(C(C)C)CC4)CC3)cc12` [Example 168, 4-(3-isopropyl-5-(4-(1-isopropylpiperidin-4-yl)piperazin-1-yl)-1H-indol-2-yl)-1H-pyrazolo[3,4-b]pyridine], the IC50 in assay [1] is 0.259 µM; in assay [2] it was above 50 µM; in assay [3], 48 µM.

As to `COCCN1CCN(C2CCN(c3ccc4[nH]c(-c5ccc(OC)c(OC)c5)c(C(C)C)c4c3)CC2)CC1` [Example 92, 2-(3,4-dimethoxyphenyl)-3-isopropyl-5-(4-(4-(2-methoxyethyl)piperazin-1-yl)piperidin-1-yl)-1H-indole], the half-inhibitory concentration (IC50) in assay [1] was 1.75 µM; in assay [2], 0.019 µM; in assay [3] it was 0.012 µM.

On to `COc1ccc(-c2[nH]c3ccc(NC(=O)[C@H](N)CC(C)C)cc3c2C(C)C)cc1OC` [Example 16, (R)-2-amino-N-(2-(3,4-dimethoxyphenyl)-3-isopropyl-1H-indol-5-yl)-4-methylpentanamide], for which the IC50 in assay [1] was 5.76 µM; in assay [2] it was 2.07 µM; in assay [3] it was 0.047 µM.

Turning to `C#CCCCN1CCN(c2ccc3[nH]c(-c4ccc(OC)c(OC)c4)c(C(C)C)c3c2)CC1` [Example 146, 2-(3,4-dimethoxyphenyl)-3-isopropyl-5-(4-(pent-4-yn-1-yl)piperazin-1-yl)-1H-indole], the IC50 in assay [1] came to 1.95 µM; in assay [2], 0.206 µM; in assay [3], 0.012 µM.

`COc1ccc(-c2[nH]c3ccc(NC(=O)[C@@H](N)CCC(=O)O)cc3c2C(C)C)cc1OC` [Example 24, (S)-4-amino-5-((2-(3,4-dimethoxyphenyl)-3-isopropyl-1H-indol-5-yl)amino)-5-oxopentanoic acid]: the IC50 was above 50 µM in assay [1], 1.08 µM in assay [2] and 0.216 µM in assay [3].

Take `CCN1CCCN(C2CCN(c3ccc4[nH]c(-c5ccc(OC)c(OC)c5)c(C(C)C)c4c3)CC2)CC1` [Example 84, 2-(3,4-dimethoxyphenyl)-5-(4-(4-ethyl-1,4-diazepan-1-yl)piperidin-1-yl)-3-isopropyl-1H-indole]: the results for the half-maximal inhibitory concentration (IC50) in assay [1], in assay [2] and in assay [3] were 0.999 µM, 0.016 µM and 0.0047 µM, respectively.

Take `Cc1cc(-c2[nH]c3ccc(N4CCC(N5CCN(C(C)C)CC5)C4=O)cc3c2C(C)C)cc(C)n1` (single isomer, unassigned) [Example 6, 1-(2-(2,6-dimethylpyridin-4-yl)-3-isopropyl-1H-indol-5-yl)-3-(4-isopropylpiperazin-1-yl) pyrrolidin-2-one]: the IC50 in assay [1] was found to be 1.02 µM; in assay [2] it was 0.0039 µM; in assay [3], 0.0049 µM.

For `COc1ccc(-c2[nH]c3ccc(NC4CCC(NCCN5CCOCC5)CC4)cc3c2C(C)C)cc1OC` (stereo not drawn) [Example 47, N1-(2-(3,4-dimethoxyphenyl)-3-isopropyl-1H-indol-5-yl)-N4-(2-morpholinoethyl)cyclohexane-1,4-diamine], the results for the IC50 in assay [1], in assay [2] and in assay [3] were 0.624 µM, 0.222 µM and 0.276 µM, respectively.

`CC[C@@H](C)[C@@H](N)C(=O)Nc1ccc2[nH]c(-c3ccc(OC)c(OC)c3)c(C(C)C)c2c1` [Example 17, (2R,3R)-2-amino-N-(2-(3,4-dimethoxyphenyl)-3-isopropyl-1H-indol-5-yl)-3-methylpentanamide]: the IC50 in assay [1] was 6 µM; in assay [2] it was 0.299 µM; in assay [3], 0.072 µM.

In the case of `COc1ccc(-c2[nH]c3ccc(N4CCC(N5CCOCC5)CC4)cc3c2C(C)C)cc1OC` [Example 74, 4-(1-(2-(3,4-dimethoxyphenyl)-3-isopropyl-1H-indol-5-yl)piperidin-4-yl)morpholine], the IC50 was 5.21 µM in assay [1], 0.062 µM in assay [2] and 0.015 µM in assay [3].

With `CCc1c(-c2ccc(OC)c(OC)c2)[nH]c2cc(C)c(N3CCC4(CC3)CCN(C(C)C)CC4)cc12` [Example 186, 3-(2-(3,4-dimethoxyphenyl)-3-ethyl-6-methyl-1H-indol-5-yl)-9-isopropyl-3,9-diazaspiro[5.5]undecane], the IC50 in assay [1] was 2.85 µM; in assay [2] it was 1.21 µM; in assay [3], 1.59 µM.

With `COc1ccc(-c2[nH]c3ccc(NC(=O)CCCN)cc3c2C(C)C)cc1OC` [Example 12, 4-amino-N-(2-(3,4-dimethoxyphenyl)-3-isopropyl-1H-indol-5-yl)butanamide], the IC50 in assay [1] is 5.61 µM; in assay [2], 0.202 µM; in assay [3] it was 0.037 µM.

One may read the IC50 as the concentration that gives 50% inhibition. Read a low IC50 as greater potency.

The values above are taken from US11306092B2, “Amino indole compounds useful as TLR inhibitors” (BRISTOL-MYERS SQUIBB COMPANY, priority 2017, dated 2022).
